How the values were obtained:
[1] = test system: Transcription response, NF-kB; assay: Pharmacological profile: transcription response; type: cell-based
Source text: (§1) Table 1 Pharmacological profile of SM-345431 (part 1) | column: IC50 (μm)

[2] = test system: Transcription response, NF-AT; assay: Pharmacological profile: transcription response; type: cell-based
Source text: as §1

Semaphorin = Semaphorin (Homo sapiens, UniProt Q14563); assay: Pharmacological profile: semaphorin inhibition; type: cell-based
Sequence of Semaphorin (Q14563 21-771): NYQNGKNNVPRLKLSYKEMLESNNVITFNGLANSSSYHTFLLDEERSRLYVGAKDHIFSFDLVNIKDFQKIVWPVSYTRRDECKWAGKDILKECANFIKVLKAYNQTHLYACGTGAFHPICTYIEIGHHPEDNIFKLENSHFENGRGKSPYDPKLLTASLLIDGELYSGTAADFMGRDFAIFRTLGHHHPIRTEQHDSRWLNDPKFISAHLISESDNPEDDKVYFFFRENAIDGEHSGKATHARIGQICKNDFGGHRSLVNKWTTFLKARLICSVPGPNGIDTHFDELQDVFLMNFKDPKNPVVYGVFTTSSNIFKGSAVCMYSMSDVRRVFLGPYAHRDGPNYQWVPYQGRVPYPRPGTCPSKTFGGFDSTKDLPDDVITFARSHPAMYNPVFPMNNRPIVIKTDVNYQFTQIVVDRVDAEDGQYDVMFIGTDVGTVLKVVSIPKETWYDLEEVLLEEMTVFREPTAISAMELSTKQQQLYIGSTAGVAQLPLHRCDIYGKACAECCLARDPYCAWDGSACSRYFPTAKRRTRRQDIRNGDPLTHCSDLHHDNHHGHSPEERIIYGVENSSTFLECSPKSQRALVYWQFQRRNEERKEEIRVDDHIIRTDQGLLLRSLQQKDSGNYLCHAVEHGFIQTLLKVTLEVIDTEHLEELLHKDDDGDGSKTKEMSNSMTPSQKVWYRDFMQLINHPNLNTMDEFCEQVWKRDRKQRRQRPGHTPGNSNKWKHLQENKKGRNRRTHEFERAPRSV
Source text: In our previous study, we used an osmotic mini-pump to deliver the semaphorin3A inhibitor SM-216289 [20]. However, in clinical practice, this type of invasive drug delivery method is not ideal. Therefore, we developed a novel DDS that utilizes a silicone matrix to continuously deliver SM-345431 (a newly developed semaphorin3A inhibitor) intrathecally. We evaluated the drug release profile of SM-345431 in this new silicone matrix preparation and the potency of SM-345431-mediated semaphorin3A inhibition in vitro (Figure 1). […] When chick embryonic DRG explants and semaphorin3A-expressing COS7 cell aggregates (semaphorin3A-COS) were co-cultured in a collagen gel, the neurites of the DRG explants grew away from the semaphorin3A-COS, as shown in Figure 1B. […] We also evaluated the selectivity of SM-345431 for semaphorin3A inhibition by examining the pharmacological profile of SM-345431 (Tables 1 and 2). […] The release of SM-345431 (0.1 mg/mg loading 10%) in vivo was calculated as 0.5-0.7 μg/day, and this dose was similar to the dose of the semaphorin3A inhibitor (SM-216289) that we administered using osmotic mini pumps in our previous study. […]

SCT adult rats = assay: Kinematic analysis of hindlimb motor performance on a treadmill; type: in vivo, rat
Method: Rats were randomly divided into the following three experimental groups: 1) untrained + placebo, 2) untrained + SM-345431 and 3) trained + SM-345431. SCT was performed, and SM-345431 or placebo was administered at the lesion site via the newly developed DDS, which is described in detail below. Starting 1 week post-injury, treadmill training commenced with a BSS. Kinematic tests were performed monthly for 3 months after SCT using a rodent robotic device (Rodent robot 3000, Robomedica Inc.) that primarily assessed the performance of plantar stepping on a treadmill. Treadmill training was continued throughout the experimental period.
A robotic device (rodent robot 3000, Robomedica Inc.) was used to train the SCT rats. Briefly, the device consisted of a computer-controlled BSS, two lightweight robotic arms and a treadmill with variable motorized speeds. The ankles of the hindlimbs of rats were held with a pair of releasable rope cuffs, which were then secured to robotic arms to track ankle trajectory in the horizontal and vertical directions. A computer-controlled body support arm was used to control the load that was applied to the hindlimbs and to maintain body equilibrium. Rats were secured in a cloth vest and attached to the body support arm with a hook-and-loop fabric. Hard rope cuffs were attached to the hindlimbs of rats with the robotic arm during training.
Additionally, improvements in motor performance were more obvious when the treadmill training was initiated at earlier time points after SCT. Therefore, training was initiated as early as 1 week after SCT. The fixed parameters were set at 50% body weight support (BWS), 20 min/day and 5 days/week. The animals were adapted to the training via increasing velocity; a velocity of 1 cm/s was used in the first week, and then the velocity was increased by 2 cm/s every 2 weeks for the first 2 months after injury (i.e., 1 cm/s to 3 cm/s to 5 cm/s). […] Once the rats dragged their hindlimbs and stopped walking on the treadmill, a trainer brought their bodies back to the original walking position. The step ability of SCT rats on the treadmill improved gradually over the course of the first 2 months following injury. However, this improvement was attenuated at time points later than 2 months after injury.
To evaluate the locomotor capability of SCT rats in detail, the aforementioned robotic device was employed. Each robotic arm tracked the two-dimensional movement of the ankle, and the trajectory of the ankle movement was then recorded on a computer for kinematic analyses. Not all the rats were able to walk by themselves on the treadmill by the last time point of the experiment. Therefore, when performing the tests, the degree of BWS and treadmill speed were titrated to obtain the maximum walking performance on the treadmill. As a result of this titration, the behavioral tests were performed at 70% BWS and a treadmill velocity of 1 cm/s each month after SCT. The duration of testing was 1 min per rat to minimize training effects during testing. The methods of previous reports were followed with slight adaptations. Briefly, the ankle trajectory in each plane was recorded by the robotic arm and a computer. Then, the toe off (TO) and paw contact (PC) events in each step cycle were identified using Rodent Robot 3000 software. All kinematic characteristics were obtained when TO and PC were identified; as a result, parameters such as the duration phase, the swing phase of the step cycle and the length and height of the step were calculated. The number of animals used in these behavioral tests was 32 (control: n = 9, SM-345431: n = 12, combined: n = 11).

[3] = SM-345431 alone, 70% BWS, 1 cm/s

In the case of CC(=O)c1cc2c(=O)c3c(C(=O)O)c(O)c(O)cc3oc2c(C(C)=O)c1-c1coc2cc(O)c(O)c(C(=O)O)c2c1=O [SM-345431, Vinaxanthone], the IC50 [1] is reported as > 10 µM, the IC50 [2] is reported as > 10 µM and the IC50 (Semaphorin) is reported as 0.1 to 0.2 µM. The “semaphorin3A inhibitory activity compared with SM-216289” value (Semaphorin) was “approximately the same semaphorin3A inhibitory activity as SM-216289”, the “plantar step walking on a treadmill with the BSS” value (SCT adult rats; SM-345431 alone, without extensive treadmill training) was “did not result in plantar step walking” and the “effect on the step height parameter” value (SCT adult rats; [3]) was “moderate and statistically insignificant”. The “locomotor function on a treadmill, step length parameters (average and maximum)” value (SCT adult rats; [3]) was “improved locomotor function”, the “step cycle area versus control SCT rats” value (SCT adult rats; SM-345431 alone, P < 0.05 at 3 months) was “statistically significant enhancement” and the “effect on the step height parameter (average and maximum)” value (SCT adult rats; SM-345431 combined with extensive treadmill training) was “greater enhancement was observed”. The “duration of continuous plantar step walking on a treadmill with the BSS” value (SCT adult rats; SM-345431 combined with extensive treadmill training, all rats) was “at least 30 min” and the “step cycle area versus control SCT rats” value (SCT adult rats; SM-345431 combined with treadmill training, P < 0.05 first month, P < 0.01 second and third month) was “even greater improvement”.

Reference: article PMC4008261, “Rewiring of regenerated axons by combining treadmill training with semaphorin3A inhibition” (Molecular Brain, 2014)
